{
  "source": "patent US20160243164A1",
  "about": "“ANTIMICROBIAL SILVER HYDROGEL COMPOSITION FOR THE TREATMENT OF BURNS AND WOUNDS” (CELACARE TECHNOLOGIES, LLC, priority 2011, published 2016)",
  "key": {"[1]": {"conditions": "topical exposure for 4 hours; cited from earlier work"}, "[2]": {"tested_on": "Escherichia coli ATCC 25922", "experiment": "microtube dilution MIC", "format": "cell-based", "conditions": "Example 13; E. coli ATCC 25922", "description": "(§1) In brief, a standard inoculum (100 μL of a 1:200 dilution of a 0.5 MacFarland turbidity standard) of each microorganism was prepared in standard growth media and added to equal volumes of two-fold serial dilutions of SC and SC-Gel. MICs were determined visually as the highest dilution of SC, or SC-Gel, that inhibited growth after incubating the mixtures overnight at 35° C., except for Candida albicans, which required 48 hrs incubation. […] The MIC dilution was converted to μg/mL by multiplying the neat drug (Ag^+) concentration by the dilution appropriate dilution factor.\nThe method described in Example 8 for minimum inhibitory concentration (MIC) was utilized for evaluation of activity of the compositions against Staphylococcus aureus and Streptococcus pyogenes (Gram-positive cocci) and Pseudomonas aeruginosa and Escherichia coli (Gram-negative rod) organisms."}, "[3]": {"tested_on": "Pseudomonas aeruginosa ATCC 27853", "experiment": "microtube dilution MIC", "format": "cell-based", "conditions": "Example 13; P. aeruginosa ATCC 27853", "description": "as §1\nIn brief, a standard inoculum (100 μL of a 1:200 dilution of a 0.5 MacFarland turbidity standard) of each microorganism was prepared in standard growth media and added to equal volumes of two-fold serial dilutions of SC and SC-Gel. MICs were determined visually as the highest dilution of SC, or SC-Gel, that inhibited growth after incubating the mixtures overnight at 35° C., except for C. albicans, which required 48 hrs incubation. […] The MIC dilution was converted to μg/mL by multiplying the neat drug (Ag^+) concentration by the dilution appropriate dilution factor. […]"}, "[4]": {"tested_on": "Candida albicans ATCC 10231", "experiment": "microtube dilution MIC", "format": "cell-based", "conditions": "ATCC10231, Example 9, 48 hrs incubation", "description": "as §1\nIn brief, a standard inoculum (100 μL of a 1:200 dilution of a 0.5 MacFarland turbidity standard) of each microorganism was prepared in standard growth media and added to equal volumes of two-fold serial dilutions of SC and SC-Gel. MICs were determined visually as the highest dilution of SC, or SC-Gel, that inhibited growth after incubating the mixtures overnight at 35° C., except for C. albicans, which required 48 hrs incubation. […] The MIC dilution was converted to μg/mL by multiplying the neat drug (Ag^+) concentration by the dilution appropriate dilution factor."}},
  "data": [
    {"smiles": "O=C(O)CN(CCN(CC(=O)O)CC(=O)O)CC(=O)O.[Na].[Na]", "note": "[Disodium EDTA, disodium ethylenediaminetetraacetic acid]", "values": [
      {"measurement": "reactivity in human patch test", "setting": "[1]", "result": "no reactivity"}
    ]},
    {"smiles": "O=C([O-])CC(O)(CC(=O)[O-])C(=O)[O-].[Ag+].[Ag+].[Ag+]", "note": "[SC Liquid, silver citrate]", "values": [
      {"measurement": "Minimal Inhibitory Concentration (MIC)", "setting": "[2]", "result": 7.5, "unit": "µg/mL"},
      {"measurement": "Minimal Inhibitory Concentration (MIC)", "setting": "[3]", "result": 11.25, "unit": "µg/mL"}
    ]},
    {"smiles": "Clc1ccc(COC(Cn2ccnc2)c2ccc(Cl)cc2Cl)c(Cl)c1", "note": "(stereo not shown) [MZL, Miconazole]", "values": [
      {"measurement": "MIC", "setting": "[4]", "result": 0.49, "unit": "µg/mL"}
    ]}
  ]
}
